The target of test [1] is binding sites for CGRP in rat liver membranes. The following applies: cited from earlier work.
Test [2] deals with Wistar rats. Kind of test: Serum hormones and blood metabolites following acute CGRP infusion in anaesthetised normal-fed rats. The format is in vivo, rat. The conditions noted are these: end vs commencement of infusion. How it is done:
Surgery. Experiments were performed on male Wistar rats. Animals were randomly assigned to experimental groups as outlined below. Induction and maintenance of surgical anesthesia was by 3-5% halothane and 2L oxygen. An initial blood sample was taken from a tail artery for measurement of baseline levels of blood glucose and lactate, electrolyte, acid base and oxygen status and serum levels of free fatty acids, triglyceride and cholesterol. Immediately following this, the trachea was cannulated and the animal ventilated at 60-70 breaths.min-1 with air supplemented with O2. The respiratory rate and end-tidal pressure (10-15 cmH2O) were adjusted to maintain end-tidal CO2 at 35-40 mmHg. Body temperature was maintained at 37° C. throughout surgery and the experiment by a heating pad. The carotid artery and jugular vein were cannulated with a solid-state blood pressure transducer and a saline filled PE 50 catheter respectively. For the antagonist infusion studies, surgery was similar to above with the alteration being that both the carotid artery and jugular vein were cannulated with saline filled PE 50 catheters. Fluids (saline or hormone dissolved in saline) were delivered to the jugular vein with a Y-connector to join the two lines. The carotid artery line was connected to a blood pressure transducer. Blood samples were taken from this line at time zero (baseline reading), 30 minutes and every 20 minutes until the end of the experiment at 90 minutes.
Infusion. […] Blood glucose measurements were taken from tail capillaries at 5-minute intervals throughout the duration of the experiment. At the end of the infusion a terminal blood sample was taken by cardiac puncture and analysed as per the basal sample and also for various metabolites and hormones. Serum and plasma samples were stored at −80° C. until future analysis. Animals were killed by cervical dislocation and harvested tissues (brain, liver, kidney, soleus muscle, extensor digitorum longus muscle, left ventricle, retroperitoneal and epididymal fat pads) snap frozen in liquid N2 and stored at −80° C. until future analysis.

Test [3] deals with soleus muscle. Kind of test: cAMP content of isolated soleus muscle from high fat-fed rats. In kind it is cell-based, rat. On the procedure: (§1) Soleus muscle preparation. All experiments were performed according to protocols approved by the Institutional Animal Ethics Committee. 5-6 week-old male Wistar rats (160 g) were kept on a 12:12-h light/dark cycle, and fed and watered ad libitum. Animals were anaesthetised with 50 mg/kg Nembutal (pentobarbitone sodium), then sacrificed by cervical dislocation. Soleus muscles were dissected under oxygenated KHB (118 mM NaCl, 4.75 mM KCl, 1.2 mM MgSO4, 24.8 mM NaHCO3, 1.2 mM KH2PO4, 2.54 mM CaCl2, 10 mM glucose, pH 7.4) and teased into halves, then incubated as described below.
For the measurement of cAMP in muscle, isolated soleus strips were incubated with stated concentrations of peptides, then lyophilized and deproteinized. Each strip was placed in 400 μl of 0.5 M HClO4 with 5 mM EDTA (phosphodiesterase inhibitor) and sonicated three times in 20 s bursts. Tubes were heated for 3-5 min in boiling water to coagulate protein, then centrifuged (12,000 g, 4° C., 2 min). Supernatant (300 μl) was taken and the pH adjusted to 7.0 with 75 μl of 2 M NH4OH. The samples were refrigerated (4° C., 2 h) to precipitate proteins, then centrifuged under the same conditions as above and 50 μl taken for cAMP measurement.

The test system of test [4] is soleus muscle. Kind of test: Glucose transport (2-deoxy-D-glucose uptake) in incubated soleus muscle strips. In kind it is cell-based, rat. How it is done:
as §1
Determination of rates of glucose transport in incubated soleus muscle strips. 4-5 muscle strips were added to each flask, which contained 10 ml DMEM. They were pre-incubated with hormones as indicated for 30 min at 30° C. in a shaking water bath, after which 5 μl of 2[^3H]DOG (0.5 μCi/ml) and 5 μl D[^14C(U)]sorbitol (0.05 μCi/ml) were added, then incubated for another 30 min; RIA grade BSA was added to 0.9% (w/v) to prevent non-specific binding of insulin to flasks. Following incubation, muscle strips were transferred to ice-cold KHB for 5-10 min to remove excess [^3H]DOG and [^14C]sorbitol. They were then blotted, frozen, tendons excised, then lyophilized for a further 48 h. Muscles were then weighed, transferred to scintillation vials and digested with 0.5 ml 1 M NaOH at 60° C. for 1 h. Scintillation fluid (4 ml) was added to each vial, and samples counted in a Beckman liquid scintillation spectrometer, preset to count ^14C and ^3H channels simultaneously. The amount of each isotope present in the samples was determined and used to calculate the extracellular space and the intracellular concentration of [^3H]DOG. The accumulation of intracellular [^3H]DOG, a measure of muscle glucose uptake, was calculated by subtracting the concentration of [^3H]DOG in the extracellular space from the corresponding total muscle [^3H]DOG]; extracellular [^3H]DOG was quantified by measuring the muscle concentration of [^14C]sorbitol.
Data analysis. One way ANOVA, Dunnett's Multiple Comparisons Test, and unpaired Student's t-tests were used to calculate the statistical significance of differences, as appropriate. Dose-response curves were fitted to a sigmoidal dose-response algorithm, as follows: Y=minimum+(maximum−minimum)/([…] log ^(EC50^−X), for 2-DOG-uptake; and by a four parameter logistic model, Y=minimum+(maximum−minimum)/(1+10 log ^(EC50^−X)Hill-Coefficient) for total glycogen and [^14C]glucose incorporation. Calculations were performed using Prism v2.0 (GraphPad Software, San Diego, Calif.) to derive values for half-maximal effective concentration (EC50). Displacement curves derived for competition of bound radioligand with cold ligand in transfected cells were calculated according to a one site competition fit using Prism v2.0.

Like-named read-outs stand apart in the source and are kept apart here.

By Kd is commonly meant the free concentration of one partner at which half of the binding sites on the other are occupied at equilibrium, for simple one-to-one binding.

Regarding rat CGRP-1, the Kd is approximately 0.044 nM in test [1] (read-out: Kd, high affinity binding site) and approximately 27 nM in test [1] (read-out: Kd, second binding site). Further, the “Change in [serum] Triglyceride” value in test [2] (CGRP 60 min, CGRP-(8-37) 90 min, control 0.2) is -0.7 mmol/L. In addition, in test [2] (control −0.1), the “Change in [serum] FFA” value worked out at 0.4 mmol/L. In test [2] (heparinised whole blood, control 0.3), the “Change in Lactate” value worked out at 1.7 mmol/L. Further, the “cAMP content, agonist alone” value came out at 8.6 ± 0.4 pmol/mg in test [3] (1 pM CGRP, control 5.7±0.2) and 9.3 ± 1 pmol/mg in test [3] (100 nM CGRP1, control 5.7±0.2).
Take Rat amylin: the “decrease of insulin-stimulated glucose uptake” value in test [4] (amylin 10 nM, insulin 23.7 nM) worked out at 31%. Moreover, the “2-DOG-uptake, insulin-stimulated” value in test [4] (amylin (10 nM) + insulin (23.7 nM)) was found to be 19.5±3.6 nmol/g dry-wt muscle/min. The 2-DOG-uptake in test [4] (hormone alone (amylin 10 nM; insulin 23.7 nM), basal 8.8 ± 0.9) was found to be 13.4 ± 2.4 nmol/g dry-wt muscle/min.

(Values after patent US20040038861A1, “Methods and compositions for normalizing lipid levels in mammalian tissues” (priority 2001, published 2004).)
